# Test results as given in PMC6873183, “Mechanically activated Piezo1 channels of cardiac fibroblasts stimulate p38 mitogen-activated protein kinase activity and interleukin-6 secretion” (The Journal of Biological Chemistry, 2019).
# Experiments:
# [1] = target: T1, Piezo1 (human cardiac fibroblasts, endogenous) (Homo sapiens, UniProt Q92508); test: Fura-2 intracellular Ca2+ assay, 96-well plate reader; type: cell-based; conditions: activator (agonist); native human cardiac fibroblasts; 2.5 mM probenecid, 1.5 mM CaCl2, pH 7.4; estimate, Yoda1 limited to 10 μM by solubility
# T1 construct: endogenous full-length channel in cultured human atrial cardiac fibroblasts; Yoda1 response reduced by Piezo1 siRNA
# T1 sequence (Q92508 whole entry): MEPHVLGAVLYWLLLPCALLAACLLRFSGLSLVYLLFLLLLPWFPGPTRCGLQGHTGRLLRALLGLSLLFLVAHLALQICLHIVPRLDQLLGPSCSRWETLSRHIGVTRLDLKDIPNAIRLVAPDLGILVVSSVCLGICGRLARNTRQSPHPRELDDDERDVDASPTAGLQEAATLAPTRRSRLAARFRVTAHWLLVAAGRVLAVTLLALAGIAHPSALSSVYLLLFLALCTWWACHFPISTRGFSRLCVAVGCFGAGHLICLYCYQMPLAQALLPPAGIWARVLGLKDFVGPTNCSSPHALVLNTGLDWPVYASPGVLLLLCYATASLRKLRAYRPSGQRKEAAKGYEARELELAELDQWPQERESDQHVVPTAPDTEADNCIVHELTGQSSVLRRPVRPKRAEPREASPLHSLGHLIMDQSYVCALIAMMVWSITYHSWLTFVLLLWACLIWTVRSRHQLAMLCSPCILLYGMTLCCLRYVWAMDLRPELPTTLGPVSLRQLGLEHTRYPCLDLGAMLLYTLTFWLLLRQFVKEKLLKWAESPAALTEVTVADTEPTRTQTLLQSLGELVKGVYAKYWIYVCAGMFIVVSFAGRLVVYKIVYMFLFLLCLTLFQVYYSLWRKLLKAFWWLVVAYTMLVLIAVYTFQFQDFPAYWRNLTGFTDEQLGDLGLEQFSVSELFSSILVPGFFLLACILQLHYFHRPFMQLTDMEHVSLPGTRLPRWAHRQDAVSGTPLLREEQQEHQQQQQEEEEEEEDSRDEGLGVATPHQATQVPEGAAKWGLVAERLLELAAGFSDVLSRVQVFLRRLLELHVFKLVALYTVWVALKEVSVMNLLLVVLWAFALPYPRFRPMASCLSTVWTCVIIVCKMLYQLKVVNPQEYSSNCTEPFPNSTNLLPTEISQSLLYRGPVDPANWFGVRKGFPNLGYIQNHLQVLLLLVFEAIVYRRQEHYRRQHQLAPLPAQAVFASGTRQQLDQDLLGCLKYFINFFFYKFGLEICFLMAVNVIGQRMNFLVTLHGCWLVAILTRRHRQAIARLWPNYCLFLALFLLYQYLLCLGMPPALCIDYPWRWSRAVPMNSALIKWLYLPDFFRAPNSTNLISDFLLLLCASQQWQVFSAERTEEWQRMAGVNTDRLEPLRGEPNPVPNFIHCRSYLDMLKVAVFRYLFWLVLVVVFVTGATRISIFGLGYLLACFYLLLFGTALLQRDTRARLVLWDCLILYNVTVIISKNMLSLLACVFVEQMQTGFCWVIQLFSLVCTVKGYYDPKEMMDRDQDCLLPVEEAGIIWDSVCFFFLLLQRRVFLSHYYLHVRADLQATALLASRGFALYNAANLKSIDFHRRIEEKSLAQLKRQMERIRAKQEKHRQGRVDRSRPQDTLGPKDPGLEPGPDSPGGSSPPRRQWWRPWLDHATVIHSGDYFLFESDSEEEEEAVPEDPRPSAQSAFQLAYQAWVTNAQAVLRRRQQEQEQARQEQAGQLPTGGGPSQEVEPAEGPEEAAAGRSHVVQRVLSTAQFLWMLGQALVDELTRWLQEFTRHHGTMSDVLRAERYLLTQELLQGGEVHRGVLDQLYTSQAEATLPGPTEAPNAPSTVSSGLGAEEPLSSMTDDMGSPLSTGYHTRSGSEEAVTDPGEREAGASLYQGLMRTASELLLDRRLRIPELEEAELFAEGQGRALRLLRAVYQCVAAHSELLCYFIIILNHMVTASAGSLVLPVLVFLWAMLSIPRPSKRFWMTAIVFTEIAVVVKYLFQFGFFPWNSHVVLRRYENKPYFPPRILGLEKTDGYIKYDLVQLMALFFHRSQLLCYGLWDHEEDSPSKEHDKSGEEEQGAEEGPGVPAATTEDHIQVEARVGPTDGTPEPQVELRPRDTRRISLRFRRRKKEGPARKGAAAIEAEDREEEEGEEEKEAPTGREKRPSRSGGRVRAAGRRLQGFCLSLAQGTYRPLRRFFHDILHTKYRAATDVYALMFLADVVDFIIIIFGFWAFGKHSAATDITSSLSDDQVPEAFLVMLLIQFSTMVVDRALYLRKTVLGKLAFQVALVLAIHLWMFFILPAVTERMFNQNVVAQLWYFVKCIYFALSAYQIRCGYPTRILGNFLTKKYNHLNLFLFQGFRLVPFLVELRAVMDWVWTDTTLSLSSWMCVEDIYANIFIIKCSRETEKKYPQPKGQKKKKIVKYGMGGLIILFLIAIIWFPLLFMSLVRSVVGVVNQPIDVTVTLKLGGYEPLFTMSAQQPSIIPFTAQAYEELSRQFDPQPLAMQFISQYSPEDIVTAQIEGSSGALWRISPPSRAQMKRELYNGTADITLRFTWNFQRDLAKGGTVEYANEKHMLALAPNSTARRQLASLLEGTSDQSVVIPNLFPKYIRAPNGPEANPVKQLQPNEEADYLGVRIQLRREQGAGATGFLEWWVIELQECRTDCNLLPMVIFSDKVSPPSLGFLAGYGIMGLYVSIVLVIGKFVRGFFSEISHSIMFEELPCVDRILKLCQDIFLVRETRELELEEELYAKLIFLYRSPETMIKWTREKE
# mouse Piezo1 = target: T2, mouse Piezo1 (Mus musculus, UniProt E2JF22); test: as above; type: cell-based
# T2 construct: the Dooku1 and ruthenium red rows are from native C57BL/6J cardiac fibroblasts
# T2 sequence (E2JF22 whole entry): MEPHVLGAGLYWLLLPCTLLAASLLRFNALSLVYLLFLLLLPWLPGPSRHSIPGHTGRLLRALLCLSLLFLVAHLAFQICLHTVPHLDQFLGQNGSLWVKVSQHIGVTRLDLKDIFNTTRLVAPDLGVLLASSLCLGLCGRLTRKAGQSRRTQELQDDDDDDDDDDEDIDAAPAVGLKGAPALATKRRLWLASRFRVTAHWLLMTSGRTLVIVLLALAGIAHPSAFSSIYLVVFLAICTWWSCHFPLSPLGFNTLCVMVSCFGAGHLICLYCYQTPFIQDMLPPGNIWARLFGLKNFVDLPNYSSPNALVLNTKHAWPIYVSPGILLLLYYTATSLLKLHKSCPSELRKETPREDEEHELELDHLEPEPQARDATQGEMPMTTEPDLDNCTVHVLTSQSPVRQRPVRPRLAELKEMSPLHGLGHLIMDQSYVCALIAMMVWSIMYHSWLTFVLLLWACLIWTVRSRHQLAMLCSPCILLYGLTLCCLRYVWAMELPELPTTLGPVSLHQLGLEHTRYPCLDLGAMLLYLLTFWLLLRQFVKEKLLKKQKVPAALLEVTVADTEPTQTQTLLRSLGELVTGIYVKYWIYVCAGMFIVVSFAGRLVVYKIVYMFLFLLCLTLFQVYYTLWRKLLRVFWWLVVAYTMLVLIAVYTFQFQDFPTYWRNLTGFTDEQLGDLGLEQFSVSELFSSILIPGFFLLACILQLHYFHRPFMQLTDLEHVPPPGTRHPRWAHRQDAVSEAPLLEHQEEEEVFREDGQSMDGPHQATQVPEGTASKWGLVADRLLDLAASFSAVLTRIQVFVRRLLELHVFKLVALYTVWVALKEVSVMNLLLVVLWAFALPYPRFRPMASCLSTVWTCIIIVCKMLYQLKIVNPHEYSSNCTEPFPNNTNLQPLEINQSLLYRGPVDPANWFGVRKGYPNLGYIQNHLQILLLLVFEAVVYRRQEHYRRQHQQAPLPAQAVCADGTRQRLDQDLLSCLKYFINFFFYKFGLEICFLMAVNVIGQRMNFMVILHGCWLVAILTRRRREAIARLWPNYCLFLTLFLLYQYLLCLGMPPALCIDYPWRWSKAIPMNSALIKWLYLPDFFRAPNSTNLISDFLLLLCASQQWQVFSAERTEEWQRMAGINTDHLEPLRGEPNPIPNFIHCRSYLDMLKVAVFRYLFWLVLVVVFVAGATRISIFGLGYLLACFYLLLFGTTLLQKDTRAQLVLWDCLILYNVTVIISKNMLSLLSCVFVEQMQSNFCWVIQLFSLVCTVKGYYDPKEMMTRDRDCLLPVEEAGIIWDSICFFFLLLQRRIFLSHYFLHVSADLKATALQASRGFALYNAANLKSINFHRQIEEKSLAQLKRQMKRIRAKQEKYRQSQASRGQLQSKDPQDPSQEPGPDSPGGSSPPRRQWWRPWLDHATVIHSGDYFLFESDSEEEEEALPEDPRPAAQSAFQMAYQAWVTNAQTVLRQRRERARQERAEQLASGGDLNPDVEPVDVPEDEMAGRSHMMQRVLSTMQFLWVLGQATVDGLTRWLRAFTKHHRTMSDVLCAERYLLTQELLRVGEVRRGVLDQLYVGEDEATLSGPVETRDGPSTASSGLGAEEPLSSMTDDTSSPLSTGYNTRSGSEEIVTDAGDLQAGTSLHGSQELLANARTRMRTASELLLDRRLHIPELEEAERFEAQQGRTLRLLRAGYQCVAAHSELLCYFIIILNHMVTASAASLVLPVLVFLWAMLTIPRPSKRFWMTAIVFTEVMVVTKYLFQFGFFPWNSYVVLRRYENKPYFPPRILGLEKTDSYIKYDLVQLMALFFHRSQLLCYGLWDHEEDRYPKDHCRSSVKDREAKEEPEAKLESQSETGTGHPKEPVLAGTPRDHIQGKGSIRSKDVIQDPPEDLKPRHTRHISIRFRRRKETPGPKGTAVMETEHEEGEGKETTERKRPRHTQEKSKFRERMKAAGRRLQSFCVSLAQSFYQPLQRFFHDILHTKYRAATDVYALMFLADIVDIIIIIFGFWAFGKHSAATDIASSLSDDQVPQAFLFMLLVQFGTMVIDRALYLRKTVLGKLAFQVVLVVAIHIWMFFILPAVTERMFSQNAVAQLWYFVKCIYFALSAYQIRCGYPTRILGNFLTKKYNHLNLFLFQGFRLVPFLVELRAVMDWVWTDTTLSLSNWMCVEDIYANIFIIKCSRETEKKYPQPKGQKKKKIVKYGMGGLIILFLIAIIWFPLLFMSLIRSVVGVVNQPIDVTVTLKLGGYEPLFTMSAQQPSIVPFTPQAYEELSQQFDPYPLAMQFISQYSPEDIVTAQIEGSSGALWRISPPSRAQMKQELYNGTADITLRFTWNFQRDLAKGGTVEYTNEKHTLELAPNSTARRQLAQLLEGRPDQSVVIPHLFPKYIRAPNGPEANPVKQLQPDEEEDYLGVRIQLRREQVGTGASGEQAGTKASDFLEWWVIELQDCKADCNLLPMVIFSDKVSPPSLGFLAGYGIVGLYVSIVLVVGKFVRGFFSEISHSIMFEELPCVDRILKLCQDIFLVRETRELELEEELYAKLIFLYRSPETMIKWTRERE
smiles,measurement,setting,value
Clc1cccc(Cl)c1CSc1nnc(-c2cnccn2)s1 [Yoda1],EC50,[1],710 nM
same,EC50,mouse Piezo1,330 nM
